Measured values as given in ChEMBL document CHEMBL3507680, “University of Dundee, Gates Library screen for HepG2 cell viability”.

assay: Human HepG2 cell viability assay in 384 well format; type: toxicity, cell-based; parameters: dose 125 nL, time 70.5 hour; concentration not given beside the values; settings: HepG2 cells, read-out: Inhibition

Row | Compound | cytotoxicity at 70.5 h
1 | O=C(NCC1(O)CCc2ccccc2C1)c1cccs1 (stereo not given) | -14.5%
2 | O=C(CN1CCCC1Cn1cncn1)NCCOc1ccccc1 (stereo not given) | -2.53%
3 | CSc1nsc(NC(=O)c2cc(C3CC3)nn2C)n1 | -6.09%
4 | O=C(c1scc2c1OCCO2)N1CCN(Cc2cccc(F)c2)CC1 | 20.1%
5 | CSc1ncc(CNC(C)c2cnn(-c3ccc(F)cc3F)c2C)cn1 (stereo not given) | -2.86%
6 | Cc1cccc(S(=O)(=O)NCc2cccc(CS(C)(=O)=O)c2)c1 | 9.39%
7 | C[C@@H]1C[C@H]2CN(C(=O)c3ccncn3)C[C@H]2O1 | -14.1%
8 | CC(C)(C)c1nc(CN2CCCC2CCc2ccccc2)no1 (stereo not given) | 13.1%
9 | Cc1nnc(C2CCN(C(=O)c3ccc4[nH]ccc4c3)CC2)s1 | -5.35%
10 | NCC(c1ccccc1)N1CCc2sccc2C1 (stereo not given) | 5.18%
11 | COc1cc(I)c(Cl)cc1C(=O)N(C)CC(=O)NC(C)(C)C | -23.4%
12 | COc1ccc(C2=C(C)C(N3CCc4ccccc4C3)=NS2(=O)=O)cc1 | 48.7%
13 | COC(=O)N1CC2(CCNCC2)c2cc(Cl)ccc21 | -7.27%
14 | CCS(=O)(=O)N1CCc2onc(COc3ccccn3)c2C1 | -3.32%
15 | CCc1noc(CN(Cc2cccs2)C2CC2)n1 | 0.387%
16 | CN(C)CCN1CCN(Cc2ccco2)Cc2cccnc21 | -4.07%
17 | COc1cc2[nH]c(C(=O)O)cc2c(OC)c1C | -5.57%
18 | CC1CCCCN1C(=O)CN1CCN(c2ccc3nncn3n2)CC1 (stereo not given) | -11.2%
19 | c1csc(CN2CCc3ncnc(C4CCOC4)c3CC2)n1 (stereo not given) | -4.88%
20 | N[C@H]1CN(S(=O)(=O)c2ccccc2)C[C@@H]1C1CC1 | 17.3%
21 | COCC(=O)N1CCC(c2nccnc2Oc2cccnc2C)CC1 | -34%
22 | COCCN1C(=O)[C@H]2CC[C@@H]1CN(c1ncccn1)C2 | 11.5%
23 | COc1ccc(Cc2nc3c([nH]2)CC(C)(C)CNC3=O)cc1OC | -8.64%

Row | Compound | cytotoxicity at 70.5 h
24 | CN(C)CCN1CCOCC12CCN(C(=O)C1CC1)CC2 | -10.1%
25 | Cc1noc(CN(CCc2cccs2)Cc2cccc(C#N)c2)n1 | 0.848%
26 | c1coc(-c2nc3c(c(N4CCCN5CCC[C@H]5C4)n2)CCNCC3)c1 | -2.19%
27 | CC(C)CN1CCC(NC(=O)c2ccc(F)cc2Cl)CC1 | -2.96%
28 | CC(C(=O)NC1CCCC1)S(=O)(=O)Cc1noc(C(C)(C)C)n1 (stereo not given) | 7.9%
29 | CC1=N[C@@]2(CC[C@@H]3CN(CC(C)C)C[C@@H]32)C(=O)N1CC(C)C | -13.7%
30 | Cc1cccc(CN2C[C@@H](F)[C@@H](OCc3nc4ccccc4[nH]3)C2)n1 | -1.57%
31 | Cn1c2c(c(=O)c3ccccc31)CCC(C)(C)O2 | -9.34%
32 | COCCn1ccc(NC(=O)CNC(=O)CC(C)(C)C)n1 | 27.5%
33 | O=C(CCc1ccco1)Nc1ncn(CC(=O)N2CCCCCC2)n1 | -2.03%
34 | CCn1ncc(S(=O)(=O)N[C@@H]2CCC[C@@H](n3ccnc3)[C@@H]2O)c1C | -2.3%
35 | CC(=O)NCC(=O)N1Cc2nccn2CC(Cn2cccn2)C1 (stereo not given) | -4.71%
36 | COCC(NC(=O)c1cc(NC(C)=O)ccc1Cl)c1ccnn1C (stereo not given) | -1.93%
37 | CN(Cc1ccon1)C1CCN(c2cccc(-c3cscn3)c2)CC1 | -4.4%
38 | O=C1OCC(CO)N1Cc1cccc(Cl)c1F (stereo not given) | 26.5%
39 | O=C(NCc1cc[nH]n1)N1CCCC(N2CCCC2)C1 (stereo not given) | -4.82%
40 | Cc1cnc2n(c1=O)C(CC(=O)NCc1cc(-c3cccs3)on1)CS2 (stereo not given) | 55.7%
41 | Cc1cc(C)c2c(c1)C1(CC(=O)Nc3c1cnn3C(C)C)C(=O)N2 (stereo not given) | -5.35%
42 | CN(C)c1ncccc1CNC(=O)NCCN(C)C1CCCC1 | -0.0535%
43 | COc1ccc2cccc(CC(=O)NCc3nccc(N)n3)c2c1 | -2.39%
44 | C[C@H](NC(=O)Cc1csc(-c2cccc(Cl)c2)n1)C(=O)O | 19.3%
45 | CCC(C)(NCC(=O)Nc1ccccc1)c1nc(C)cs1 (stereo not given) | -4.87%
46 | CCOC(C)c1nc(CN2CCC(NC(C)C)CC2)cs1 (stereo not given) | -2.82%

Row | Compound | cytotoxicity at 70.5 h
47 | O=C(O)c1cc(-c2cccs2)nc2c(Br)cnn12 | 3.58%
48 | CC(C)c1nc2n(n1)CC(NCc1cc3ccccc3o1)CC2 (stereo not given) | 12.7%
49 | CN(CCOc1cccc(Cl)c1)Cc1nnc(C(C)(C)C)o1 | -2.27%
50 | O=C(N[C@H]1COC[C@@H]1N1CCCC1)c1c[nH]nc1C1CCCCC1 | -4.22%
51 | COc1c(CNC2CCc3cc(Cl)ccc32)c(C)nn1C (stereo not given) | -3.82%
52 | Cn1ccnc1CN1CCN(CCOc2ccccc2C#N)CC1 | 23.6%
53 | Cn1cc(CN2C[C@H]3CCN(C(=O)c4cscn4)C[C@H]3C2)cn1 | 27.4%
54 | Cc1cc(N2CCC(NC(=O)CCc3cnn(C)c3)CC2)nc(C)n1 | -4.77%
55 | O=C(NCCCn1cccn1)c1nnc2ccccc2n1 | 2.8%
56 | CC(Cn1cccn1)NC(=O)Cc1cccs1 (stereo not given) | -6.09%
57 | COCc1ccc(OC)c(CNC2CCCNC2=O)c1 (stereo not given) | -8.49%
58 | CNc1oc(-c2ccc(OC)c(S(=O)(=O)N3CCCC3)c2)nc1C#N | -21.8%
59 | Cc1nn(C)c(N2CCOCC2)c1CNCC1CCS(=O)(=O)C1 (stereo not given) | -10.2%
60 | O=C(O)C1(Cc2ccc(Cl)cc2)CCN(c2ncccc2F)CC1 | -4.45%
61 | Cn1nc(C(=O)N2CCOCC2)cc1C(=O)Nc1ccc(Cl)cc1Cl | -2.86%
62 | O=C(C1CCC1)N1CC[C@@H]2CN(Cc3cccnc3)S(=O)(=O)[C@@H]2CC1 | -4.67%
63 | Cc1csc(C(C)(C)NCCCS(C)(=O)=O)n1 | -2%
64 | Cc1ccc(N2CCCC3(CCCC(=O)N3)C2)nn1 (stereo not given) | -5.66%
65 | COc1ccccc1N1CCCC(Nc2nccnc2C#N)C1 (stereo not given) | -6.29%
66 | COc1cccc(C(C(=O)O)N(C)Cc2ccc(C)o2)c1 (stereo not given) | -0.112%
67 | NC(=O)c1ccc(N2CCN(Cc3cccc4nsnc34)CC2)nc1 | -4.59%
68 | Cc1cc(C)c2nc(C)cc(C(=O)NC(C)c3nnn[nH]3)c2c1 (stereo not given) | 6.58%
69 | CN1CCC(N2CCOC3(CCCC3)C2)C1=O (stereo not given) | 5.41%

Row | Compound | cytotoxicity at 70.5 h
70 | CN1CCOC(CNCc2coc(-c3cccs3)n2)C1 (stereo not given) | 27.5%
71 | CCn1cnnc1CNC(=O)c1cc(Cl)ccc1OC | -4.87%
72 | N#CC1(C(=O)Nc2ccc(OC(F)F)cc2)CCCC1 | 8%
73 | CCOCCN1CCN(CCc2ccc3c(c2)CCO3)CC1 | 12.7%
74 | CC(=O)NC(C)C(=O)Nc1ccc(OCc2cccc(F)c2)cc1C (stereo not given) | -9.98%
75 | Cn1cc(CCNC(=O)C2(c3cccc(Cl)c3)CC2)cn1 | -18.4%
76 | CC(C)Oc1ccc(C(=O)N2CCCCC2Cn2cccn2)cn1 (stereo not given) | -4.78%
77 | CC(C)(O)CN1CCN(C(=O)c2cccnc2O)CC1 | -2.58%
78 | CCOCC1CN(Cc2ccc(OC)cc2)Cc2nn(CC3CC3)cc21 (stereo not given) | -5.83%
79 | CCCNC(=O)c1nn(CC)cc1NC(=O)C(C)n1ncc(Cl)c1C (stereo not given) | -5.37%
80 | O=C(CN1CCCC(Cn2cncn2)C1)NCCc1cccs1 (stereo not given) | 0.827%
81 | O=C(NCc1ccncc1)N(Cc1ccccc1F)C1CC1 | 13%
82 | CC(=O)N1CCN(Cc2cccs2)CC2(CC(=O)N(C)C2)C1 (stereo not given) | -9.26%
83 | CCN(Cc1cccc2c1OCO2)C(=O)NC1CC1 | 8.97%
84 | CCCc1nnc(C(=O)N(C)Cc2cnc3ccccn23)o1 | 33.7%
85 | Nc1cnc(-c2ccc(F)cc2Cl)cn1 | 10.8%
86 | Cn1cc(CN2CCOCC3(C2)CN(c2ccccc2)C(=O)CO3)cn1 (stereo not given) | -5.28%
87 | COc1cccc(NC(=O)NC(C)(C)c2noc(C)n2)c1 | -4.79%
88 | CCC(=O)N1CCc2c(O)nc(C3CCCCN3C(=O)C3CC3)nc2C1 (stereo not given) | -3.59%
89 | O=C(CN1CCN(c2nccs2)CC1)Nc1cccnc1 | -7.83%
90 | CC(=O)N1CCC(c2cncc(N3CCOCC3)n2)CC1 | -8.68%
91 | COCCN1CCC2(CC1)CC(CC(N)=O)c1ccc(F)cc12 (stereo not given) | 1.63%
92 | CCN1C(=O)CCCC12CCCN(C(=O)c1cc(C)oc1C)C2 (stereo not given) | -9.36%

Row | Compound | cytotoxicity at 70.5 h
93 | O=c1n(CCNCc2ccc3ccccc3c2)nc2ccccn12 | -0.105%
94 | CCN(CC)C(=O)CCCNC(=O)c1csc(NC2CC2)n1 | -9.34%
95 | Cc1ccnc(NC(=O)c2cccc(OCc3nnnn3C)c2)c1 | -17.9%
96 | O=C(c1cc[nH]n1)N1CCCC1C1CCN(Cc2ccccc2)CC1 (stereo not given) | -3.3%
97 | Cc1ncsc1C(=O)N[C@@H](Cc1ccccc1)C(N)=O | -1.24%
98 | COc1ccc(-c2cc(C(=O)N3N=C(C)CC3(O)C(F)(F)F)[nH]n2)cc1 (stereo not given) | 12.4%
99 | O=C(O)c1cc(S(=O)(=O)Nc2ccc(Cl)cc2)cc2c1OCCO2 | -10.1%
100 | Cc1noc2ncc(C(=O)N(CC3CCOC3)C3CC3)cc12 (stereo not given) | -6.78%
101 | Cc1ccc(-c2nc(CNC(C)Cn3cccn3)cs2)o1 (stereo not given) | -3.26%
102 | CN(C)CCn1c(=O)oc2ccc(NC(=O)C3CCCO3)cc21 (stereo not given) | 1.22%
103 | CCC(C)NC(=O)CN1CCOCC1 (stereo not given) | -5.48%
104 | Cc1cncc(C(=O)N2CCCC(O)(CN3CCCC3)C2)c1 (stereo not given) | -19.8%
105 | Cn1ncc2c(NC3CCCN(C(=O)C4CC4)C3)nc(C(C)(C)C)nc21 (stereo not given) | 2.96%
106 | O=C1NC2(CCc3ccccc31)CCN(C(=O)c1cccnc1)C2 (stereo not given) | -13%
107 | c1ccc(COc2ccccc2NC2CCOCC2)nc1 | -4.09%
108 | Cc1ccc(N2CCCC(NC(=O)C(C)(C)C#N)C2=O)cc1 (stereo not given) | 1.69%
109 | CC(Oc1ccc(F)cc1F)C(=O)N1CCC2(CC1)CC(=O)N(C)C2 (stereo not given) | 27.3%
110 | COc1c(CNC2CCN(c3ncccn3)CC2)c(C(C)C)nn1C | 2.8%
111 | O=C(NCCc1ccccc1)NCCN1CCC(c2cccs2)CC1 | 8.49%
112 | Cc1nc(N2C[C@@H](CN3CCCCC3)[C@@H](CO)C2)c2sccc2n1 | 8.31%
113 | Cc1ccc(-c2cn[nH]c2C2CCCN(c3nccc(N)n3)C2)cc1 (stereo not given) | -1.62%
114 | CCCNC(=O)c1cccc(CNCc2csc(C(C)C)n2)c1 | -78.5%
115 | c1ccc(CN2CCN3C[C@H](Oc4cccnc4)C[C@H]3C2)nc1 | -3.66%
